Results taken from PubChem BioAssay (NCI).
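A five-concentration, 48-hour dose response in 96-well plates underlies each endpoint, interpolated linearly between surrounding concentrations. Definition used: TGI = concentration required for complete inhibition of growth.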

Legend:
Test in all cases: DTP human tumour cell line panel, 48 h
[1] = test system: DLD-1 colon
[2] = test system: DMS 114 small cell lung
[3] = test system: DMS 273 small cell lung
[4] = test system: KM20L2 colon
[5] = test system: LXFL 529 NSCLC
[6] = test system: M19-MEL melanoma
[7] = test system: RXF-631 renal
[8] = test system: XF 498 CNS
[9] = test system: HOP-18 NSCLC

SMILES	TGI [1] [µM]	TGI [2] [µM]	TGI [3] [µM]	TGI [4] [µM]	TGI [5] [µM]	TGI [6] [µM]	TGI [7] [µM]	TGI [8] [µM]	TGI [9] [µM]
O=C(Nc1ccc([N+](=O)[O-])cc1[N+](=O)[O-])C(=O)C(C(=O)c1ccc(Cl)c(Cl)c1)C1OC(=O)c2ccccc21 (stereo not given)	42.4	59.5	> 100	89.7	47.3	79.4			
CC(C)=CCC/C(C)=C/Cc1c(O)c(C)cc2c1[nH]c1cc(O)ccc12	> 25	> 25	> 25	> 25	> 25	> 25			
C=CC(=O)Nc1ccccc1CC(c1c[nH]c2ccccc12)c1c[nH]c2ccccc12		30.1	32.1		30.6	30	32.3	42.3	
O=NN1CCN=C1c1ccc([N+](=O)[O-])cc1	> 100		> 100	> 100	> 100	> 100		> 100	
CCOC(=O)C1=C(O)C(=O)c2ccoc2C1=O		> 100	> 100	> 100		> 100		> 100	> 100
COc1ccc(NC(=O)c2oc3cc(O)ccc3c(=O)c2C)c([N+](=O)[O-])c1	> 100	> 100	> 100	> 100	> 100	> 100		> 100	> 100
CCCCCCCCCCCCCCCCCCOCC(C[N+]1(C)CCC(O)CC1)OCC (stereo not given)	44.8	12.6	4.91		11	14.4	21.1	29	
O=C1C[C@@H]2[C@@H](c3ccccc3)[C@@H]3C(=O)c4ccccc4NC(=O)[C@H]3[C@]2(O)c2ccccc2N1		> 100	> 100	> 100	> 100	> 100		> 100	
Cc1cc(N(CCC#N)CCC#N)ccc1/C=C(\NC(=O)/C=C/c1ccccc1)C(=O)Nc1ccc(Cl)cc1	> 100	> 100	> 100	> 79.6	> 100	> 38.1	> 100	> 100	> 100
NCCCC(N=Cc1nc(-c2ccccc2)oc1O)C(=O)O (stereo not given)	> 100	> 100	> 100	> 100	> 100	> 100		> 100	
CC1(C2COC(=O)C2)SCCCS1 (stereo not given)	> 100	> 100	> 100	> 100	> 100	> 100		> 100	> 100
